From patent US9833487B2, “Composition for preventing and treating arthritic diseases” (priority 2008, dated 2017)

Experiments:
[1] = tested on: pJNK; test: MAPK phosphorylation (western blot), pJNK; format: cell-based, human; details: FIG. 18
[2] = tested on: proteoglycan mRNA in cartilage tissue; test: Gene expression of proteoglycan (RT-PCR); format: cell-based, human; details: IL-1α treated cartilage tissue; FIG. 13
Protocol: (§1) The joint cartilage of human was provided from the patient who had taken artificial joint surgery (Orthopedics Surgery Dep. of Kyunghee Medical Center). […] The tissue was washed with the medium several times and then the articular tissue was cultured at 37° C. in humidified […] incubator. 1 or 2 days after the incubation, the medium was replaced with new basic medium containing inactivated 5% fetal bovine serum with heat treatment, 10 mM HEPES, and 100 unit/ml of penicillin-streptomycin, and 30 mg of the chondrocyte was transferred to 48-well plate. After culturing for 1 hour, 5 ng/μl of interleukin-1α (IL-1α, R&D system, USA) was added to the medium to induce inflammation and various concentrations of test sample (KM-1), ETCP (SK Chemicals), Celecoxib (CEL, Pfizer Co., USA), and Glucosamine (GLUCO, Sigma Co., USA), i.e., 0.1, 0.2, and 0.4 mg/ml, were added thereto respectively. […] The stained product was washed for 10 minutes with distilled water and the result was determined at UV wavelength (260 nm). The expression of proteoglycan and Col II gene collected from the cartilage tissue and chondrocytic cell of rabbit in above Reference Example 3 was determined and the test was performed by using reverse transcription polymerase chain reaction (RT-PCR) with the method disclosed in Reference Example 4.

[3] = tested on: pp 38; test: MAPK phosphorylation (western blot), pp38; format: cell-based, human; details: FIG. 18
[4] = tested on: pERK; test: MAPK phosphorylation (western blot), pERK; format: cell-based, human; details: FIG. 18
[5] = tested on: MMP-13 (collagenase-13); test: MMP-13 activity in human cartilage tissue medium; format: cell-based; details: FIG. 14
Protocol: (§2) The joint cartilage of human was provided from the patient who had taken artificial joint surgery (Orthopedics Surgery Dep. of Kyunghee Medical Center). […] The tissue was washed with the medium several times and then the articular tissue was cultured at 37° C. in humidified […] incubator. 1 or 2 days after the incubation, the medium was replaced with new basic medium containing inactivated 5% fetal bovine serum with heat treatment, 10 mM HEPES, and 100 unit/ml of penicillin-streptomycin, and 30 mg of the chondrocyte was transferred to 48-well plate. After culturing for 1 hour, 5 ng/μl of interleukin-1α (IL-1α, R&D system, USA) was added to the medium to induce inflammation and various concentrations of test sample (KM-1), ETCP (SK Chemicals), Celecoxib (CEL, Pfizer Co., USA), and Glucosamine (GLUCO, Sigma Co., USA), i.e., 0.1, 0.2, and 0.4 mg/ml, were added thereto respectively. […] In order to measure proteolytic activity, each 25 μl of medium was added to 96-well plate with 50 μl of the substrate to incubate at 37° C. for 1 hr and the optical density was measured by ELISA reader (Molecular devices, USA) at 450 nm. The activity of each sample on MMP-1 and MMP-13 was determined by calculating the MMP (%) of medium in each well.

[6] = tested on: GAG degradation in human articular cartilage tissue; test: Dissociation of glycosaminoglycan (DMB assay), IL-1α induced cartilage tissue; format: cell-based; details: 0.1, 0.2, 0.4 mg/ml, FIG. 12
Protocol: The joint cartilage of human was provided from the patient who had taken artificial joint surgery (Orthopedics Surgery Dep. of Kyunghee Medical Center). […] The tissue was washed with the medium several times and then the articular tissue was cultured at 37° C. in humidified […] incubator. 1 or 2 days after the incubation, the medium was replaced with new basic medium containing inactivated 5% fetal bovine serum with heat treatment, 10 mM HEPES, and 100 unit/ml of penicillin-streptomycin, and 30 mg of the chondrocyte was transferred to 48-well plate. After culturing for 1 hour, 5 ng/μl of interleukin-1α (IL-1α, R&D system, USA) was added to the medium to induce inflammation and various concentrations of test sample (KM-1), ETCP (SK Chemicals), Celecoxib (CEL, Pfizer Co., USA), and Glucosamine (GLUCO, Sigma Co., USA), i.e., 0.1, 0.2, and 0.4 mg/ml, were added thereto respectively. […] The concentration of GAG in the culture medium of cartilage tissue incubated with the procedure disclosed in Reference Example 3 was measured by determining the amount of polyanionic substance produced by being reacted with blyscan dye solution and chondroitin sulfate was used as a standard. […] The amount of spectroscopic GAG was determined at 540 nm and the inhibition rate was expressed based on the amount of degradated GAG induced by interleukin-1α (IL-1α).

[7] = tested on: type II collagen mRNA in cartilage tissue; test: Gene expression of Col II (RT-PCR); format: cell-based, human; details: IL-1α treated cartilage tissue; FIG. 13
Protocol: as §1

[8] = tested on: MMP-1 (collagenase-1); test: MMP-1 activity in human cartilage tissue medium; format: cell-based; details: FIG. 15
Protocol: as §2

## O=C(/C=C/c1ccc(O)c(O)c1)O[C@@H]1C[C@](O)(C(=O)O)C[C@@H](O)[C@H]1O [chlorogenic acid]
[1]
  inhibition of pJNK: potently inhibited
[2]
  mRNA gene expression of proteoglycan: increased mRNA gene expression of proteoglycan and type II collagen
[3]
  inhibition of pp 38: potently inhibited
[4]
  inhibition of pERK: inhibited the activity of pERK
[5]
  inhibition of MMP-13 activity: significantly inhibited the activity of collagenase MMP-1 and MMP-13 in a dose dependent manner
[6]
  inhibition of the degradation of GAG: potently inhibited the degradation of GAG
[7]
  mRNA gene expression of type II collagen: increased mRNA gene expression of proteoglycan and type II collagen
[8]
  inhibition of MMP-1 activity: significantly inhibited the activity of collagenase MMP-1 and MMP-13 in a dose dependent manner
